From BigSolDB 2.1

C[C@@H]1CC[C@H]2[C@@H](C)C(=O)O[C@@H]3O[C@@]4(C)CC[C@@H]1[C@]32OO4
solubility (mole fraction)
Conditions	284.15 K	289.15 K	295.15 K	298.15 K	304.15 K	309.15 K	314.15 K	319.15 K	323.15 K
in 2-butanone	0.0163	0.0212	0.0292	0.0337	0.046	0.0585	0.0762	0.0919	0.117
in MTBE	0.00109	0.00154	0.00234	0.00285	0.00421	0.00579	0.0079	0.0107	0.0136
in acetone	0.00405	0.0053	0.0073	0.00848	0.0115	0.0147	0.0187	0.0236	0.0284
in acetonitrile	0.00084	0.00112	0.00157	0.00184	0.00254	0.00329	0.00424	0.00544	0.00661
in ethanol	0.00236	0.00305	0.00412	0.00475	0.00631	0.00796	0.01	0.0125	0.0149
in ethyl acetate	0.00557	0.00784	0.0118	0.0142	0.0208	0.0283	0.0383	0.0514	0.0647
in isopropyl acetate	0.00683	0.00838	0.0107	0.012	0.015	0.0182	0.0218	0.0261	0.0301
in methanol	0.00056	0.00078	0.00117	0.00142	0.00207	0.00281	0.0038	0.00508	0.00639
in n-butanol	0.00085	0.00127	0.00203	0.00253	0.00394	0.00563	0.00799	0.0112	0.0147
in n-heptane	5.1e-05	7.2e-05	0.000113	0.00013	0.000202	0.000282	0.000383	0.000531	0.000684
in n-hexane	5e-05	7e-05	0.000111	0.000132	0.000201	0.00028	0.000381	0.000534	0.000681
in toluene	0.017	0.0226	0.0316	0.0369	0.0507	0.0656	0.0843	0.108	0.131
